The structures appear in SMILES notation.

The target in test [1] is CDK7/Cyclin H/MNAT1 (Homo sapiens) (UniProt P51946+P50613+P51948). In words: Selectivity interaction (Adapta Assay) EUB0001632a CDK7. The test is classed as protein-complex assay. The following applies: at 10 µM.
Test [2] addresses T1, Protein kinase C iota type (Homo sapiens) (UniProt P41743).
T1 sequence (whole entry): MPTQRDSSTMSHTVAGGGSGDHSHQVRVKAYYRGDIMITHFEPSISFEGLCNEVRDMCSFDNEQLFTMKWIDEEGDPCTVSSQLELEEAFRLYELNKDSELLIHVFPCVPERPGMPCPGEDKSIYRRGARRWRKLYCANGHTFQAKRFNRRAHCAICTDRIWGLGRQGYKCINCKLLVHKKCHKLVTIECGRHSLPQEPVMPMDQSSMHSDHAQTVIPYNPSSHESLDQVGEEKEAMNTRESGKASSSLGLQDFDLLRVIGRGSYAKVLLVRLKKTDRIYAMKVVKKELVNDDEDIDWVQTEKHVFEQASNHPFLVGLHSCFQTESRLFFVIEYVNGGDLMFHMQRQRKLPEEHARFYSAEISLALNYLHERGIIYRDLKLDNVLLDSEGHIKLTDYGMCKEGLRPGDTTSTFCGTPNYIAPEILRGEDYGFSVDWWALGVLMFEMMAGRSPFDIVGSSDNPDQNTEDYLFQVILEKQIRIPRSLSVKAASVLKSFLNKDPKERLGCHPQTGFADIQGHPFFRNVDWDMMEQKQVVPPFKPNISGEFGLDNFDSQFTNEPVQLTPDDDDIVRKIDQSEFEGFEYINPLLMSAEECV
In words: Selectivity interaction (KinomeScan (DiscoverX)) EUB0001079a PRKCI. The settings on record: at 1 µM.

For test [3], the target named is T2, Aurora kinase A (Homo sapiens) (UniProt O14965).
T2 sequence (whole entry): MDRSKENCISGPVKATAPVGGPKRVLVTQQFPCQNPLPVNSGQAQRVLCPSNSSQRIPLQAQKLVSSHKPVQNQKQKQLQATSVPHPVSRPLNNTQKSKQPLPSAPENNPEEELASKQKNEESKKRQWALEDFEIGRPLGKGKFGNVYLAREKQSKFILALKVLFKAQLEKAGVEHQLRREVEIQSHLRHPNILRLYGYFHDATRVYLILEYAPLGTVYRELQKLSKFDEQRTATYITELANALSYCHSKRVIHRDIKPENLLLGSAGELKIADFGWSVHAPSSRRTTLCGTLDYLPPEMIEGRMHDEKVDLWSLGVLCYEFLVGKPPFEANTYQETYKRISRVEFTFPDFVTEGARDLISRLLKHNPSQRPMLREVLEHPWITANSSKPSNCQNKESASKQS
In words: Selectivity interaction (ActivX KiNativ screen (kinase selectivity in THP-1 cell lysates)) EUB0000639a STK6. It is filed as subcellular. The settings on record: lysate.

Test [4] has as its target Cyclin-dependent kinase 7 (Homo sapiens, UniProt P50613). In words: Selectivity interaction (ActivX KiNativ screen (kinase selectivity in THP-1 cell lysates)) EUB0000639a CDK7. The test is classed as subcellular. The following applies: lysate.
The target in test [5] is T3, Phosphatidylinositol 5-phosphate 4-kinase type-2 gamma (Homo sapiens) (UniProt Q8TBX8).
T3 sequence (whole entry): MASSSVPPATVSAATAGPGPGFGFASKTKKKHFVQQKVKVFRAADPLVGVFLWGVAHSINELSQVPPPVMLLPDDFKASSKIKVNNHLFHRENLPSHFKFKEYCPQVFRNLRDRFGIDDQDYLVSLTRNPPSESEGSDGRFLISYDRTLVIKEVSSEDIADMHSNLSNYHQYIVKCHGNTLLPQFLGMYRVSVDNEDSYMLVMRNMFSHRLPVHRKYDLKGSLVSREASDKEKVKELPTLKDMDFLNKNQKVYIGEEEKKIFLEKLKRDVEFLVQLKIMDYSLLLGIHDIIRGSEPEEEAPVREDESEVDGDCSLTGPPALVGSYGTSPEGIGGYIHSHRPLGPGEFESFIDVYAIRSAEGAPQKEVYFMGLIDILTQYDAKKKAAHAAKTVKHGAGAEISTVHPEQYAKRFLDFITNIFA
In words: Selectivity interaction (ActivX KiNativ screen (kinase selectivity in THP-1 cell lysates)) EUB0000639a PIP4K2C. The test is classed as subcellular. The following applies: lysate, at 0.01 µM.

In test [6] the target is Serine/threonine-protein kinase 24 (Homo sapiens) (UniProt Q9Y6E0). As to the kind of experiment: Selectivity interaction (KinomeScan (DiscoverX)) EUB0001049a STK24. The following applies: at 1 µM.
Test [7] deals with cAMP-dependent protein kinase catalytic subunit alpha (Homo sapiens, UniProt P17612). In words: Selectivity interaction (KinomeScan (DiscoverX)) EUB0000695a PRKACA. The settings on record: at 100 nM.
Test [8] deals with Platelet-derived growth factor receptor beta (Homo sapiens, UniProt P09619). In words: Selectivity interaction (ProQinase) EUB0000171b PDGFRB.
Platelet-derived growth factor receptor beta, sequence (P09619 whole entry): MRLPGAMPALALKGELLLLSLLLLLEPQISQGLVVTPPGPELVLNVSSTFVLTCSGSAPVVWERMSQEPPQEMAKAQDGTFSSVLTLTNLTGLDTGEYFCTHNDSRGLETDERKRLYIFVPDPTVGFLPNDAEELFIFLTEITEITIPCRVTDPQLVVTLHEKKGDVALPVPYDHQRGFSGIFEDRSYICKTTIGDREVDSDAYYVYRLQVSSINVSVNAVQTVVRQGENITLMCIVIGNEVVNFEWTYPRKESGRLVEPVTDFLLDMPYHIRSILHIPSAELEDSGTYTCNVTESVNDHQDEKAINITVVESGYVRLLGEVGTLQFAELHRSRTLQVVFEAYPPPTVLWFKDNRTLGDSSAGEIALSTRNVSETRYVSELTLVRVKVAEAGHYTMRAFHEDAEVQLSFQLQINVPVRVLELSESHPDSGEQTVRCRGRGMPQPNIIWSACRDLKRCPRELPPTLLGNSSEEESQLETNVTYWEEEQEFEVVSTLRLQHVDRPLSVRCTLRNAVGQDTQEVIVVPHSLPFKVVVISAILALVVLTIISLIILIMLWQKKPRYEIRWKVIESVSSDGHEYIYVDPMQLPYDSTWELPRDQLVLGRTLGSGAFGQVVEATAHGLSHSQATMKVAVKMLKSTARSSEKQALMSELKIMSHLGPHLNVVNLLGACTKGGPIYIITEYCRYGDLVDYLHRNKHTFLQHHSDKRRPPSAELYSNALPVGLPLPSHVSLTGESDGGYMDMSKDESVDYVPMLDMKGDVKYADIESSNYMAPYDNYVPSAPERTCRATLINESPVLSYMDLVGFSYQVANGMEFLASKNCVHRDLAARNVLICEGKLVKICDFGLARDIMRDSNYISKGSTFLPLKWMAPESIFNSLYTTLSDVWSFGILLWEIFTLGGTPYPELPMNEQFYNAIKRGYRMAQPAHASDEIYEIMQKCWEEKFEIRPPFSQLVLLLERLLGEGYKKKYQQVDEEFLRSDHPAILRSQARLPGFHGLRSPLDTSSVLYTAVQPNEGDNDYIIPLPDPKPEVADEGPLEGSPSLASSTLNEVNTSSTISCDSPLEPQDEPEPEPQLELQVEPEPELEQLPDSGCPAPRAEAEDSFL

Cyclin-dependent kinase 7, sequence (P50613 whole entry): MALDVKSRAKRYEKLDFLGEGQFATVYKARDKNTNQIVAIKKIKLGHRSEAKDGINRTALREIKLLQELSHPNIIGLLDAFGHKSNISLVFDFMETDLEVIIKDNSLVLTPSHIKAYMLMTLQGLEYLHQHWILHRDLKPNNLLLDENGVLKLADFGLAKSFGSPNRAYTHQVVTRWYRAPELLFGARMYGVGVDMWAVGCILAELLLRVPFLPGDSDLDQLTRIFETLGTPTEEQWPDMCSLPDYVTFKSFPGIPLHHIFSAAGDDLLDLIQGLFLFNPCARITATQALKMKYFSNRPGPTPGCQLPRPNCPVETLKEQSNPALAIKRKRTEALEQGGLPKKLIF
Serine/threonine-protein kinase 24 (Homo sapiens), sequence (Q9Y6E0 whole entry, looked up): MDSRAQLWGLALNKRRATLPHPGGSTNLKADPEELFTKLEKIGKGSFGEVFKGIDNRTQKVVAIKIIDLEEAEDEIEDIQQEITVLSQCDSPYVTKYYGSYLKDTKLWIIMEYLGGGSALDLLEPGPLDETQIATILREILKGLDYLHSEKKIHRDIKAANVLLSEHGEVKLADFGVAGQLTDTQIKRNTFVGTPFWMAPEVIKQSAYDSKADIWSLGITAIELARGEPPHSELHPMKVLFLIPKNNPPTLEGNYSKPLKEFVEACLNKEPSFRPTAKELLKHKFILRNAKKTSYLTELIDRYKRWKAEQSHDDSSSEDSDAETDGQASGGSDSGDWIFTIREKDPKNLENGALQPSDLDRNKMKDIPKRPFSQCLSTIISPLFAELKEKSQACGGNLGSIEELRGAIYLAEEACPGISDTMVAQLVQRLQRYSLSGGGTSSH

In the case of `Cn1cc(-n2cnc3c(NCc4nc5cc(Cl)c(Cl)cc5[nH]4)nc(N4CCOCC4)nc32)cn1`, the % of inhibition in test [1] was -13.5%.

In test [2], `Nc1cnc(N2CCc3cc(S(=O)(=O)Nc4c(F)cc(Cl)cc4F)cc(N4CCCC4=O)c32)nc1` [TP-020n] showed a % of control of 100%.

As for `CC[C@@H]1[C@H](F)C(=O)N[C@@H]1COc1nccc2cc(C(N)=O)c(OC)cc12` [ZIMLOVISERTIB], the % of inhibition in test [3] (at 0.01 µM) is -0.7%; in test [3] (at 0.04 µM), -2.4%; in test [3] (at 0.2 µM) it was 2.8%; in test [3] (at 1 µM) it was 26.7%; in test [3] (at 5 µM), 59.9%; in test [4] (at 0.01 µM), -17%. Besides, the % of inhibition in test [4] (at 0.04 µM) is -0.9%; in test [4] (at 0.2 µM), -1.1%; in test [4] (at 1 µM) it was 20.9%; in test [4] (at 5 µM), 60%; in test [5] it was 7.3%.

In turn, `COc1cc(Nc2nc(C)cc(-c3cnn4nc(OC)ccc34)n2)cc(C(F)(F)F)c1` gave a % of control in test [6] of 76%.

In test [7], `Cc1cc(F)c(C(=O)Nc2cccc(-c3nncn3C(C)C)n2)cc1-n1cnc(C2CC2)c1` had a % of control of 99%.

In the case of `C=CC(=O)Nc1cccc(C(=O)Nc2ccc(Nc3cc(-c4[nH]c(SC)nc4C)ccn3)cc2)c1`, the % of control in test [8] (at 1 µM) amounted to 74%; in test [8] (at 5 µM) it was 46%.
